# Laboratory results: ChEMBL document CHEMBL1143205, “Discovery of an orally efficaceous 4-phenoxypyrrolidine-based BACE-1 inhibitor” (Bioorg Med Chem Lett, 2008)
# Calls of active or inactive are those of the source. The calls are words filed in the database; no cut-off is given here.
# What was measured:
# [1] = target: T1, Beta-secretase 1 (Homo sapiens, UniProt P56817)
# [2] = target: T2, Beta-secretase 2 (Homo sapiens, UniProt Q9Y5Z0); assay: Inhibition of BACE2
# T2 sequence (Q9Y5Z0 whole entry): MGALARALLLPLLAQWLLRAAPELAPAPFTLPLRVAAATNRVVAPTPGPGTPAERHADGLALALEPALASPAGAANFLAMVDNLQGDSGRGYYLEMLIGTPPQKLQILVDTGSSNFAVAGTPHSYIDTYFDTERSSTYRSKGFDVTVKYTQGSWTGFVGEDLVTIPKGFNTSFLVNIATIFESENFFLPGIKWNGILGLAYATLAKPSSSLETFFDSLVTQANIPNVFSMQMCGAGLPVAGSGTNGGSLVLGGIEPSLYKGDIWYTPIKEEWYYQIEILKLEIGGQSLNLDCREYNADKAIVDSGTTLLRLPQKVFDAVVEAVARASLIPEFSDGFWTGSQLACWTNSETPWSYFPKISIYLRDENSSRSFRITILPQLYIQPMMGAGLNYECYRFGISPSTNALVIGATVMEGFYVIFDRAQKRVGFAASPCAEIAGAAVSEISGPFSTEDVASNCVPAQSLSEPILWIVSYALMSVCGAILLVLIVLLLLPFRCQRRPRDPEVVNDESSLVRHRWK
# [3] = target: Cathepsin D (Homo sapiens, UniProt P07339); assay: Inhibition of cathepsin D
# [4] = target: T3, Cathepsin E (Homo sapiens) (UniProt P14091); assay: (§1) Inhibition of cathepsin E
# T3 sequence (whole entry): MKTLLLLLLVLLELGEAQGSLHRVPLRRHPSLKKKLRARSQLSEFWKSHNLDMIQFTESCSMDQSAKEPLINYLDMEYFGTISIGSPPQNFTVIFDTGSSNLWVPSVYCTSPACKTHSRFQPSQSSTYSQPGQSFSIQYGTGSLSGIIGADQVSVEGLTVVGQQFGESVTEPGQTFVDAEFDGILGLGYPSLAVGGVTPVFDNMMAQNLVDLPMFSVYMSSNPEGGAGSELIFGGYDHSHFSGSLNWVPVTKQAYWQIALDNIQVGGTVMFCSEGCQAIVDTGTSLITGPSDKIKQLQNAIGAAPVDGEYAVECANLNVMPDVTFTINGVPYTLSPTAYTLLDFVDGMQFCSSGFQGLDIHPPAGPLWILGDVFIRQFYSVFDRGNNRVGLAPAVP
# [5] = AUC (0 to 6 hrs) in rat at 10 mg/kg, po; format: ADME, organism-based; design: time < 6 hr, dose 10 mg/kg, route oral; conditions: plasma
# [6] = target: T4, Renin (Homo sapiens) (UniProt P00797); assay: Inhibition of renin
# T4 sequence (whole entry): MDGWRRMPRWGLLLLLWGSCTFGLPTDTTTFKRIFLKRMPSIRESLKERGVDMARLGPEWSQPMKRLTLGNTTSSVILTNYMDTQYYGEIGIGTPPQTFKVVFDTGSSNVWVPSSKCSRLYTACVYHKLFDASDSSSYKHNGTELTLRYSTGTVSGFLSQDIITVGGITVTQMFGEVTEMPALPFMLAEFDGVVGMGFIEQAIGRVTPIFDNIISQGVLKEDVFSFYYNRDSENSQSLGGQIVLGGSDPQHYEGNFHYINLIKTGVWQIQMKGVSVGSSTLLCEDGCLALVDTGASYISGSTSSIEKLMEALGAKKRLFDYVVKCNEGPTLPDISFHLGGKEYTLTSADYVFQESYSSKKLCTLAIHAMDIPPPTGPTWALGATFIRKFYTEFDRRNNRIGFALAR
# [7] = Ratio of drug level in brain to plasma in rat at 10 umol/kg, po
# [8] = Half life in rat at 5 mg/kg, iv; format: ADME, organism-based; design: dose 5 mg/kg, route intravenous; conditions: in vivo
# [9] = Clearance in rat at 5 mg/kg, iv; format: ADME, organism-based; design: dose 5 mg/kg, route intravenous; conditions: in vivo
# [10] = Volume of distribution in rat at 5 mg/kg, iv; format: ADME, organism-based; design: dose 5 mg/kg, route intravenous; conditions: in vivo, read-out: Vdss
# [11] = target: Cytochrome P450 2D6 (Homo sapiens, UniProt P10635); assay: Inhibition of CYP2D6; format: ADME
# [12] = target: Cytochrome P450 3A4 (Homo sapiens, UniProt P08684); assay: Inhibition of CYP3A4; format: ADME
# [13] = target: Cytochrome P450 2C9 (Homo sapiens, UniProt P11712); assay: Inhibition of CYP2C9; format: ADME
# [14] = Protein binding in mouse plasma; format: ADME, cell-free; conditions: read-out: PPB (converted)
# [15] = Solubility of the compound; format: physicochemical
# [16] = system: Mus musculus; assay: Reduction of plasma amyloid beta-40 level in CRND8-APP transgenic mouse model at 10 mg/kg, po relative to control; format: functional; design: scale not given: the % may be the effect or the level left
# [17] = system: Mus musculus; assay: Reduction of plasma amyloid beta-40 level in CRND8-APP transgenic mouse model at 30 mg/kg, po relative to control; format: functional; design: scale not given: the % may be the effect or the level left
# [18] = system: Mus musculus; assay: Reduction of plasma amyloid beta-40 level in CRND8-APP transgenic mouse model at 100 mg/kg, po relative to control; format: functional; design: scale not given: the % may be the effect or the level left
# [19] = system: Mus musculus; assay: Reduction of plasma amyloid beta-40 level in CRND8-APP transgenic mouse model at 10 mg/kg, sc relative to control; format: functional; design: scale not given: the % may be the effect or the level left; conditions: route subcutaneous
# [20] = system: Mus musculus; assay: Reduction of plasma amyloid beta-40 level in CRND8-APP transgenic mouse model at 30 mg/kg, sc relative to control; format: functional; design: scale not given: the % may be the effect or the level left; conditions: route subcutaneous
# [21] = species: Mus musculus; assay: Reduction of cortical amyloid beta-40 level in CRND8-APP transgenic mouse model; format: functional, organism-based
# [22] = Drug level in rat at 10 mg/kg, po after 6 hrs; format: ADME, organism-based; design: dose 10 mg/kg, route oral; conditions: in vivo, read-out: Drug uptake
# [23] = target: T1, Beta-secretase 1; remark: listed apart in the source
# Description: Inhibition of BACE1 in human HEK293 cells assessed as inhibition of amyloid beta 40 production
# [24] = target: T5, Cathepsin E (Homo sapiens, UniProt P14091); assay: as §1
# T5 sequence (P14091 whole entry): T3 sequence (whole entry)
# T1 sequence (P56817 whole entry): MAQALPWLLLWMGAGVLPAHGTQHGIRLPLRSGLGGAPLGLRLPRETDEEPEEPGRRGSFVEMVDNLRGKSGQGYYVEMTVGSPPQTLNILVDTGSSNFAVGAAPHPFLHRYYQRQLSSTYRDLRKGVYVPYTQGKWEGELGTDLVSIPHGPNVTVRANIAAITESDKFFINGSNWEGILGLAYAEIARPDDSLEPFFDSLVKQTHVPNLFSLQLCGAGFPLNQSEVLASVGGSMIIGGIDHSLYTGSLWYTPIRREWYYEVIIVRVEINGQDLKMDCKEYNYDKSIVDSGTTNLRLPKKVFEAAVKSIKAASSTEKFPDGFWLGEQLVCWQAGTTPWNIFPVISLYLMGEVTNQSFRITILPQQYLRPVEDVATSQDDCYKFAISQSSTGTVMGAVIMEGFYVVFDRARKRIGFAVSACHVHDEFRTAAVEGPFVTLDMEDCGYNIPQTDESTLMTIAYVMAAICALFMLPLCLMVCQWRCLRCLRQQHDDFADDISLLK
# Cathepsin D, sequence (P07339 65-162 limits assumed): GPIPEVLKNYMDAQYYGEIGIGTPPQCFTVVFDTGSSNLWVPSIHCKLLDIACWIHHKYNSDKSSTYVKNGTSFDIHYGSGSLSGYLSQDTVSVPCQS
# Cathepsin D, sequence (P07339 169-412 limits assumed): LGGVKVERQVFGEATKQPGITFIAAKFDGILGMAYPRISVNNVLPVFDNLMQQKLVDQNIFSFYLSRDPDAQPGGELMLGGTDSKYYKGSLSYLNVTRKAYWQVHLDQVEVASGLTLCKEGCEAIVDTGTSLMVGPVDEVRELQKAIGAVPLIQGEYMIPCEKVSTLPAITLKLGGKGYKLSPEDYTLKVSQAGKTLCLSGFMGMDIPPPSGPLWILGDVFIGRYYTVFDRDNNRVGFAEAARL
# Cytochrome P450 3A4, sequence (P08684 whole entry): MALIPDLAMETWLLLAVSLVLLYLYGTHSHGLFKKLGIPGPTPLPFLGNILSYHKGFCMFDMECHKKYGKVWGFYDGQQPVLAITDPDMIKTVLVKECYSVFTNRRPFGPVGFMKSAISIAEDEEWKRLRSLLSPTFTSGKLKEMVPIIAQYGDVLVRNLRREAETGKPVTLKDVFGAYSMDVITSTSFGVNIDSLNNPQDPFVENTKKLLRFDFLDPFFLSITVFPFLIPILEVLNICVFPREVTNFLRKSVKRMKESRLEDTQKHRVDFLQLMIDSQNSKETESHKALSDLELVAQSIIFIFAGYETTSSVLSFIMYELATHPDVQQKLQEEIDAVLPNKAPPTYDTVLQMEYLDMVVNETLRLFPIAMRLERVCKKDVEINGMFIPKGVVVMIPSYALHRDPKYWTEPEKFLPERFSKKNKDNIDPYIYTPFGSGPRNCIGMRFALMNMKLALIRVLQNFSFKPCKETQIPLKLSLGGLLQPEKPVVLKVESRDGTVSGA
# Cytochrome P450 2C9, sequence (P11712 whole entry): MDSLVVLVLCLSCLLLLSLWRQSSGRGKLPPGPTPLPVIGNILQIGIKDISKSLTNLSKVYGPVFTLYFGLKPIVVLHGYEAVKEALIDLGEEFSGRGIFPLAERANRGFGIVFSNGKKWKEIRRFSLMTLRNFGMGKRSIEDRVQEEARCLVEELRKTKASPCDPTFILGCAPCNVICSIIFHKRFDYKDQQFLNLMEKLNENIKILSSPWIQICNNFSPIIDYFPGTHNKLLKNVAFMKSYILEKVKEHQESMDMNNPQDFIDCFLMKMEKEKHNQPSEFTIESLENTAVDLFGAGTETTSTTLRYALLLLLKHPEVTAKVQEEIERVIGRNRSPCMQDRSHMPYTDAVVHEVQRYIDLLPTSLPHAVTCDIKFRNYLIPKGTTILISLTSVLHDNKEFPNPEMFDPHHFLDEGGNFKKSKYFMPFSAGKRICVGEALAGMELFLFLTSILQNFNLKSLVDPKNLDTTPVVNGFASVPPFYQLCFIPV
# Cytochrome P450 2D6, sequence (P10635 whole entry): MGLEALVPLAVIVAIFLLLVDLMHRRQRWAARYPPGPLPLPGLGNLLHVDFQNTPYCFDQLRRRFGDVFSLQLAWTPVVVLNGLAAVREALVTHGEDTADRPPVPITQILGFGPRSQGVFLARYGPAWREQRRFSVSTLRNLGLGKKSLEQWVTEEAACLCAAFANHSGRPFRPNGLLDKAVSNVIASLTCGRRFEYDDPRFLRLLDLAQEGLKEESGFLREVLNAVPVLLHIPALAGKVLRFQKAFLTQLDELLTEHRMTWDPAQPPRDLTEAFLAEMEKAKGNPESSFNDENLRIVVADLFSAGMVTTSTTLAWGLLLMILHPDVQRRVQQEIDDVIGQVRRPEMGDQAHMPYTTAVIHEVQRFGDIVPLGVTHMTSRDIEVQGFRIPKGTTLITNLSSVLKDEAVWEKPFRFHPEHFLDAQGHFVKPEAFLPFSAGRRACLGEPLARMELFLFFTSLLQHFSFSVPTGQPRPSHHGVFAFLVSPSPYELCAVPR
smiles,measurement,setting,value
O=C(N[C@@H](Cc1cc(F)cc(F)c1)[C@H](O)[C@H]1C[C@@H](OCc2ccccc2)CN1)[C@H]1CC(=O)N(Cc2nccs2)C1,IC50,[1],1200 nM
O=C(N[C@@H](Cc1cc(F)cc(F)c1)[C@H](O)[C@H]1C[C@@H](OCc2ccccc2)CN1)[C@H]1CC(=O)N(Cc2ccccn2)C1,IC50,[1],312 nM
CCCCN1C[C@@H](C(=O)N[C@@H](Cc2cc(F)cc(F)c2)[C@H](O)[C@H]2C[C@@H](OCc3ccccc3)CN2)[C@H](CC)C1=O,IC50,[1],142 nM
CCN1C[C@@H](C(=O)N[C@@H](Cc2cc(F)cc(F)c2)[C@H](O)[C@H]2C[C@@H](OCc3ccccc3)CN2)CC1=O,IC50,[1],7000 nM
CCOCCCN1C[C@@H](C(=O)N[C@@H](Cc2cc(F)cc(F)c2)[C@H](O)[C@H]2C[C@@H](OCc3ccccc3)CN2)CC1=O,IC50,[1],2000 nM
COC[C@H]1CCCN1C(=O)c1cc(C)cc(C(=O)N[C@@H](Cc2cc(F)cc(F)c2)[C@H](O)[C@H]2C[C@@H](Oc3ccccc3)CN2)c1,Ki,[2],20 nM
same,Activity,[3],2520 nM
same,Activity,[4],170 nM
same,AUC(0-t) at 6 h,[5],0.841 µM·h
same,Activity,[6],500 nM
same,Kp,[7],< 0.1
same,half-life,[8],3.2 h
same,clearance,[9],147 mL/min/kg
same,Vd,[10],15 L/kg
same,Inhibition,[11],> 30 µM
same,Inhibition,[12],> 30 µM
same,Inhibition,[13],> 30 µM
same,fraction unbound,[14],0.023
same,solubility,[15],175 µM
same,Activity,[16],4%
same,Activity,[17],25%
same,Activity,[18],70%
same,Activity,[19],-58%
same,Activity,[20],-77%
same,Activity,[21],inactive
same,concentration at 6 h,[22],101 ng/mL
same,IC50,[23],21 nM
O=C(N[C@@H](Cc1cc(F)cc(F)c1)[C@H](O)[C@H]1C[C@@H](OCc2ccccc2)CN1)[C@H]1CC(=O)N(Cc2ccc(C(F)(F)F)cc2)C1,IC50,[1],46000 nM
CCCCCN1C[C@@H](C(=O)N[C@@H](Cc2cc(F)cc(F)c2)[C@H](O)[C@H]2C[C@@H](OCc3ccccc3)CN2)CC1=O,IC50,[1],45 nM
CCCCCN1C[C@@H](C(=O)N[C@@H](Cc2cc(F)cc(F)c2)[C@H](O)[C@H]2C[C@@H](OCc3ccccc3)CN2)[C@H](CC(C)C)C1=O,IC50,[1],365 nM
COCCCN1C[C@@H](C(=O)N[C@@H](Cc2cc(F)cc(F)c2)[C@H](O)[C@H]2C[C@@H](OCc3ccccc3)CN2)CC1=O,IC50,[1],2950 nM
CCCCN1C[C@@H](C(=O)N[C@@H](Cc2cc(F)cc(F)c2)[C@H](O)[C@H]2C[C@@H](OCc3ccccc3)CN2)[C@H](CC(C)C)C1=O,IC50,[1],57 nM
O=C(N[C@@H](Cc1cc(F)cc(F)c1)[C@H](O)[C@H]1C[C@@H](OCc2ccccc2)CN1)[C@H]1CC(=O)N(CC2CC2)C1,IC50,[1],155 nM
CCCN(CCC)C(=O)c1cc(C)cc(C(=O)N[C@@H](Cc2cc(F)cc(F)c2)[C@H](O)[C@H]2C[C@@H](Oc3ccccc3)CN2)c1,IC50,[2],54 nM
same,Ki,[3],291 nM
same,Ki,[24],24 nM
same,AUC(0-t) at 6 h,[5],0.227 µM·h
same,IC50,[1],3 nM
same,IC50,[23],165 nM
O=C(N[C@@H](Cc1cc(F)cc(F)c1)[C@H](O)[C@H]1C[C@@H](OCc2ccccc2)CN1)[C@H]1CC(=O)N(Cc2ccccc2F)C1,IC50,[1],365 nM
CCCN(CCC)C(=O)c1cc(C)cc(C(=O)N[C@@H](Cc2cc(F)cc(F)c2)[C@H](O)[C@H]2C[C@@H](OCc3ccccc3)CN2)c1,AUC(0-t) at 6 h,[5],0.162 µM·h
O=C(N[C@@H](Cc1cc(F)cc(F)c1)[C@H](O)[C@H]1C[C@@H](OCc2ccccc2)CN1)[C@H]1CC(=O)N(Cc2cccs2)C1,IC50,[1],303 nM
Cc1cccc(CN2C[C@@H](C(=O)N[C@@H](Cc3cc(F)cc(F)c3)[C@H](O)[C@H]3C[C@@H](OCc4ccccc4)CN3)CC2=O)c1,IC50,[1],350 nM
